Measurements published in patent US9718817B2, “Aryl and heteroaryl ether compounds as ROR gamma modulators” (Glenmark Pharmaceuticals S.A., priority 2014, dated 2017).

Biological target: T1, GST-tagged ROR gamma ligand binding domain (LBD) (Homo sapiens, UniProt P51449)
T1 construct: purchased Invitrogen
T1 sequence (P51449 269-508 limits assumed): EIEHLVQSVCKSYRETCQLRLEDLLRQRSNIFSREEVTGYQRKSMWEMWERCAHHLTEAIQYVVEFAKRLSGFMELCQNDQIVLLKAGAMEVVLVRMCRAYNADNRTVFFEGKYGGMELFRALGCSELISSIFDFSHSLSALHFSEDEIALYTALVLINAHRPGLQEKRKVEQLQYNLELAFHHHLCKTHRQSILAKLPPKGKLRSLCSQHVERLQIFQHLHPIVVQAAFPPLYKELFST
Experiment: TR-FRET assay for ROR gamma (LanthaScreen co-activator peptide recruitment)
Format: biochemical
Settings: for IC50: class symbols, from dose response curve; for inhibition at 1 µM: compound 1 μM; for inhibition at 1 µM / inhibition at 10 µM: TR-FRET ratio 520/495, percent of control; for inhibition at 10 µM: compound 10 μM
Description: The compounds described herein were screened for ROR gamma modulator activity using the TR-FRET assay by Lantha Screen as described in JBC 2011, 286, 26: 22707-10; and Drug Metabolism and Disposition 2009, 37, 10: 2069-78.
The assay is based on the principle that binding of the agonist to the ROR gamma causes a conformational change around helix 12 in the ligand binding domain, resulting in higher affinity for the co-activator peptide. ROR gamma being constitutively active, the Fluorescein-D22 co-activator peptide used in the assay is recruited in the absence of a ligand. Binding of the co-activator peptide, causes an increase in the TR-FRET signal while binding of an antagonist decreases the recruitment of the co-activator peptide, causing a decrease in the TR-FRET signal compared to control with no compound. The assay was performed using a two-step procedure, pre-incubation step with the compound followed by the detection step on addition of the anti-GST tagged terbium (Tb) and fluorescein tagged fluorophores as the acceptor.
Test compounds or reference compounds such as T0901317 (Calbiochem) were dissolved in dimethylsulfoxide (DMSO) to prepare 10.0 mM stock solutions and diluted to the desired concentration. The final concentration of DMSO in the reaction was 4% (v/v). The assay mixture was prepared by mixing 10 nM of the GST-tagged ROR gamma ligand binding domain (LBD) in the assay buffer containing 25 mM HEPES (pH 7.4), 100 mM NaCl, 5 mM DTT and 0.01% BSA with or without the desired concentration of the compound. The reaction was incubated at 22° C. for 1 hour. The pre-incubation step was terminated by addition of the detection mixture containing 300 nM Fluorescein-D22 co-activator peptide and 10 nM lantha screen Tb-anti GST antibody into the reaction mixture. After shaking for 5 minutes the reaction was further incubated for 1 hour at room temperature and read at 4° C. on an Infinite F500 reader as per the kit instructions (Invitrogen). The inhibition of test compound was calculated based on the TR-FRET ratio of 520/495. The activity was calculated as a percent of control reaction. IC50 values were calculated from dose response curve by nonlinear regression analysis using GraphPad Prism software.
Percentage inhibition at concentrations of 1.0 μM and 10.0 μM are given in the table along with IC50 (nM) details for selected examples.

| Compound | IC50 [nM] | inhibition at 1 µM [%] | inhibition at 10 µM [%] |
| --- | --- | --- | --- |
| CCS(=O)(=O)c1ccc(CC(=O)Nc2ccc(C#CC(C)(C)Oc3ccc(C#N)cc3)cc2)cc1 [Example 79, N-{4-[3-(4-Cyano-phenoxy)-3-methyl-but-1-yn-1-yl]-phenyl}-2-(4-ethanesulfonyl-phenyl)-acetamide] | < 50 | 79.9 | 86.1 |
| CCn1c(C(C)(C)Oc2ccc(NC(=O)Cc3ccc(S(=O)(=O)CC)cc3)cc2F)nc2cc(F)ccc21 [Example 111, 2-(4-Ethanesulfonyl-phenyl)-N-{4-[1-(1-ethyl-5-fluoro-1H-benzoimidazol-2-yl)-1-methyl-ethoxy]-3-fluoro-phenyl}-acetamide] | < 50 | 88 | 86.8 |
| CCS(=O)(=O)c1ccc(CC(=O)Nc2ccc(OC(C)(C)c3ccc(Cl)cc3F)cc2)cc1 [Example 6, N-(4-{[2-(4-Chloro-2-fluorophenyl)propan-2-yl]oxy}phenyl)-2-[4-(ethylsulfonyl)phenyl]acetamide] | – | 77.5 | 83.1 |
| CCS(=O)(=O)c1ccc(CC(=O)Nc2ccc3c(c2)nc(C(C)(C)Oc2ccc(F)cc2F)n3CC(C)C)cc1 [Example 116, N-{2-[1-(2,4-Difluoro-phenoxy)-1-methyl-ethyl]-1-isobutyl-1H-benzoimidazol-5-yl}-2-(4-ethanesulfonyl-phenyl)-acetamide] | > 100 | 79.1 | 84.5 |
| CCS(=O)(=O)c1ccc(CC(=O)Nc2ccc(OC3(c4ccc(Cl)c(F)c4)CC3)nc2)cc1 [Example 52, N-{6-[1-(4-Chloro-3-fluoro-phenyl)-cyclopropoxy]-pyridin-3-yl}-2-(4-ethanesulfonyl-phenyl)-acetamide] | – | 63.7 | 83.8 |
| CCS(=O)(=O)c1ccc(CC(=O)Nc2ccc(OC(C)(C)C(=O)N(C)c3ccc(Cl)cc3)cc2)cc1 [Example 128, N-(4-Chlorophenyl)-2-{4-[2-(4-ethanesulfonylphenyl)acetylamino]-phenoxy}-2-N-dimethylpropionamide] | – | 64.2 | 79.8 |
| CCS(=O)(=O)c1ccc(CC(=O)Nc2ccc(C#CC(C)(C)Oc3ccc(F)c(Cl)c3)cc2)cc1 [Example 68, N-{4-[3-(3-Chloro-4-fluoro-phenoxy)-3-methyl-but-1-yn-1-yl]-phenyl}-2-(4-ethanesulfonyl-phenyl)-acetamide] | – | 70.7 | 79.9 |
| CCS(=O)(=O)c1ccc(CC(=O)Nc2ccc(OC3(c4ccc(Cl)cc4Cl)CCCC3)cc2)cc1 [Example 123, N-{4-[1-(2,4-Dichlorophenyl)-cyclopentyloxy]-phenyl}-2-(4-ethanesulfonyl-phenyl)-acetamide] | < 50 | 82 | 87.2 |
| CCS(=O)(=O)c1ccc(CC(=O)Nc2ccc(OC3(c4ccc(F)c(F)c4)CCC3)cc2)cc1 [Example 34, N-{4-[1-(3,4-Difluoro-phenyl)-cyclobutoxy]-phenyl}-2-(4-ethanesulfonyl-phenyl)-acetamide] | < 50 | 86.6 | 89.7 |
| CCS(=O)(=O)c1ccc(CC(=O)Nc2ccc(OC(C)(C)c3ccc(Cl)c(Cl)c3)cc2)cc1 [Example 4, N-(4-{[2-(3,4-Dichlorophenyl)propan-2-yl]oxy}phenyl)-2-[4-(ethylsulfonyl)phenyl]acetamide] | < 50 | 80.5 | 86.4 |
| CCn1c(C(C)(C)Oc2ccc(NC(=O)Cc3ccc(S(=O)(=O)CC)cc3)cc2)nc2cc(Cl)ccc21 [Example 16, N-(4-{[2-(5-Chloro-1-ethyl-1H-benzimidazol-2-yl)propan-2-yl]oxy}phenyl)-2-[4-(ethylsulfonyl)phenyl]acetamide] | < 50 | 88.6 | 94.3 |
| CCS(=O)(=O)c1ccc(CC(=O)Nc2ccc3c(c2)nc(C(C)(C)Oc2ccc(F)cc2F)n3C2CC2)cc1 [Example 125, N-{1-Cyclopropyl-2-[1-(2,4-difluorophenoxy)-1-methylethyl]-1H-benzoimidazol-5-yl}-2-(4-ethanesulfonyl-phenyl)-acetamide] | < 50 | 89.2 | 90.4 |
| CCS(=O)(=O)c1ccc(CC(=O)Nc2ccc(OC(C)(C)c3noc(-c4ccc(Cl)cc4)n3)cc2)cc1 [Example 28, N-(4-{1-[5-(4-Chloro-phenyl)-[1,2,4]oxadiazol-3-yl]-1-methyl-ethoxy}-phenyl)-2-(4-ethanesulfonyl-phenyl)-acetamide] | – | 61.1 | 84.4 |
| CCS(=O)(=O)c1ccc(CC(=O)Nc2ccc(C#CC(C)(C)Oc3ccc(Cl)c(F)c3)c(F)c2)cc1 [Example 106, N-{4-[3-(4-Chloro-3-fluoro-phenoxy)-3-methyl-but-1-ynyl]-3-fluoro-phenyl}-2-(4-ethanesulfonyl-phenyl)-acetamide] | < 50 | 81.9 | 85.9 |
| CCS(=O)(=O)c1ccc(CC(=O)Nc2ccc(OC3(c4ccc(Cl)cc4Cl)CCCCC3)cc2)cc1 [Example 134, N-(4-((1-(2,4-Dichlorophenyl)cyclohexyl)oxy)phenyl)-2-(4-(ethylsulfonyl)phenyl)acetamide] | < 50 | 77.3 | 81.1 |
| CCS(=O)(=O)c1ccc(CC(=O)Nc2ccc(OC3(c4ccc(Cl)cc4F)CCC3)cc2)cc1 [Example 33, N-(4-{[1-(4-Chloro-2-fluorophenyl)cyclobutyl]oxy}phenyl)-2-[4-(ethylsulfonyl)phenyl]acetamide] | – | 76.7 | 81.8 |
| CCS(=O)(=O)c1ccc(CC(=O)Nc2ccc(OC3(c4ccc(Cl)c(F)c4)CCC3)c(F)c2)cc1 [Example 119, N-{4-[1-(4-Chloro-3-fluorophenyl)-cyclobutoxy]-3-fluoro-phenyl}-2-(4-ethanesulfonyl-phenyl)-acetamide] | < 50 | 84.9 | 84.5 |
| CCS(=O)(=O)c1ccc(CC(=O)Nc2ccc(OC3(c4ccc(Cl)c(F)c4)CCC3)cc2)cc1 [Example 32, N-(4-{[1-(4-Chloro-3-fluorophenyl)cyclobutyl]oxy}phenyl)-2-[4-(ethylsulfonyl)phenyl]acetamide] | < 50 | 83.7 | 88.5 |
| CCS(=O)(=O)c1ccc(CC(=O)Nc2ccc3c(c2)nc(C(C)(C)Oc2ccc(Cl)c(Cl)c2)n3C)cc1 [Example 85, N-{2-[2-(3,4-Dichlorophenoxy)propan-2-yl]-1-methyl-1H-benzimidazol-5-yl}-2-[4-(ethylsulfonyl)phenyl]acetamide] | < 50 | 87.1 | 91.2 |
| CCS(=O)(=O)c1ccc(CC(=O)Nc2ccc(C#CC(C)(C)Oc3c(F)cc(Cl)cc3F)cc2)cc1 [Example 75, N-{4-[3-(4-Chloro-2,6-difluoro-phenoxy)-3-methyl-but-1-yn-1-yl]-phenyl}-2-(4-ethanesulfonyl-phenyl)-acetamide] | < 50 | 83.2 | 84 |
| CCN(C(=O)C(C)(C)Oc1ccc(F)cc1F)c1ccc(NC(=O)Cc2ccc(S(=O)(=O)CC)cc2)cc1 [Example 132, 2-(2,4-Difluorophenoxy)-N-ethyl-N-(4-(2-(4-(ethylsulfonyl)phenyl)acetamido)phenyl)-2-methylpropanamide] | – | 52.9 | 60.9 |
